Test system: PCP-induced prepulse inhibition (PPI) disorder
Experiment: Disorder of PCP-induced prepulse inhibition (PPI) in a rat
Format: in vivo
Settings: dose 10 mg/kg, PCP 1 mg/kg s.c., % PPI
Experimental: An Improvement Effect for a Disorder of PCP-Induced Prepulse Inhibition (PPI) in a Rat
A startle amplitude occurs in humans to which an sound stimulus has been given, but in healthy human, this startle amplitude is inhibited by the giving of a weak sound stimulus that precedes the sound stimulus. For a patient with schizophrenia, the inhibitory function similarly declined. It is known that when a rat is administered with PCP (phencyclidine), there is a symptom similar to the negative symptom of schizophrenia in humans. Using this model, the improvement effect of the compound (I) for the information processing disorder included in cognitive impairment of schizophrenia was evaluated.
Species: Male Wistar rat/number of the animals (number of animals per group): 12 animals per group
Startle amplitude measuring device for small animals: an SR-LAB ABS system (manufactured by San Diego Instruments)
An animal holder, to which a Plexiglas-made cylinder for animal storage having a diameter of 8.2 cm was attached, was positioned in the upper part of a Plexiglas-made frame in a measurement box. In the measurement box, a sound-insulating treatment and ventilation (FAN) were carried out. Sound was administered by a speaker attached to the 24 cm upper part of the cylinder. The movement of the animals in the cylinder was detected by a transducer attached in the lower part of the frame and recorded by a microcomputer via an interface.
The experiment was initiated after the animals were put into the chamber for measurement and had spent 10 minutes adapting to the measurement environment. Basically, at 35 minutes after the compound to be tested was orally administered, 1 mg/kg of PCP was subcutaneously administered (1 ml/kg). Five minutes later, the rats were put into a chamber for measurement, allowed to adapt for 10 minutes, and the measurement was then initiated. A white noise of 65 dB (for all frequencies, a disordered noise having a constant energy per unit band) used as a background noise was always played through the break periods and the sessions. The three types of trials as shown below were carried out in a random order 10 times for each type with 30 times in total. Each trial was carried out at a pseudo-random interval of 20 to 60 seconds with an average of 40 seconds. A pulse was defined as a white noise of 120 dB, 20 msec, and a prepulse was defined as a white noise of 70, 80 dB, 20 msec.
The startle amplitude of the animal was measured for 100 msec from the initiation of the pulse, and the maximum value was taken as a “maximum startle amplitude (Vmax))”. The “maximum startle amplitude” for the ten times for each of the three types of trials were averaged, and taken as a “startle amplitude (simply referred to as SA)” under the stimulation condition.
The % prepulse inhibition (% PPI) was calculated in the following equation in the PP80 & P trial of 3) above.
% Prepulse inhibition (% PPI)=(Startle amplitude at P-alone trial (SA)−Startle amplitude (SA) at a PP80 & P trial)/Startle amplitude at P alone trial×100
The measured value was expressed as an average value (mean±SE). First, the startle amplitudes (SA) were statistically analyzed. […] For the measured data of % PPI, the normal group and the control group (the group administered with PCP) were compared by a Student t-test, and for the control group and the group administered with the compound to be tested were compared using a Dunnett evaluation. […] The effect of the compound to be tested was assessed with % PPI.

## OCCOCCN1CCN(C2=Nc3ccccc3Sc3ccccc32)CC1 [quetiapine, reference compound]
  improvement of the PCP-induced PPI: significantly improved

Source: patent US20100324017A1, “ACYLGUANIDINE DERIVATIVE” (priority 2007, published 2010)
